Measurements: ChEMBL document CHEMBL1157539, “Thousands of chemical starting points for antimalarial lead identification” (Nature, 2010)

Test system: Plasmodium falciparum
Experiment: GSK_TCMDC: Inhibition of Plasmodium falciparum 3D7 in whole erythrocytes, using parasite LDH activity as an index of growth.
Assay type: functional, organism-based
Conditions: Plasmodium falciparum, 3D7

Compared with `CCN(CC)CCN(Cc1ccc(-c2ccc(C(F)(F)F)cc2)cc1)C(=O)Cn1c(CCc2cccc(F)c2F)nc(=O)c2cccnc21`, `CCN(CC)CCN(Cc1ccc(-c2ccc(C(F)(F)F)cc2)cc1)C(=O)Cn1c(CCc2c(F)ccc(F)c2F)nc(=O)c2ccccc21` is 3.1-fold lower in XC50: 728 nM for the first, 238 nM for the second.

`CCN(CC)CCN(Cc1ccc(-c2ccc(C(F)(F)F)cc2)cc1)C(=O)Cn1c(CCc2cccc(C#N)c2)nc(=O)c2ccccc21` and `CCN(CC)CCCNCc1ccc(-c2ccc(C(F)(F)F)cc2)cc1` are within 1.5-fold of each other in XC50: 768 nM for the first, 993 nM for the second.

Compared with `CCc1cc2c3c(N)nc(N)nc3ccc2n1C(C)(C)C`, `Cc1ccc(Cc2c(C)nc3nc(N)nc(N)c3c2C)cc1` is 19-fold higher in XC50: 12.7 nM for the first, 243 nM for the second.

Going from `CCCc1cc(C)ccc1OCCCON1C(N)=NC(N)=NC1(C)C` to `Cc1ccc2[nH]c3c(NCCN(C)C)ncnc3c2c1`, the XC50 rises from 3.2 nM to 838 nM (260-fold).

`OCCC1CCN(Cc2ccc(-c3ccc(-c4nc5ccccc5[nH]4)cc3)cc2)CC1` and `OC1CCCN(Cc2cccc(-c3ccc(-c4nc5cc(C(F)(F)F)ccc5[nH]4)cc3)c2)C1` (stereo not given) are within 1.5-fold of each other in XC50: 768 nM for the first, 690 nM for the second.

First: CS(=O)(=O)CCNCc1nc(-c2ccc3c(Nc4ccc(Oc5ccccn5)cc4)ccnc3c2)cs1
Second: c1ccc(Oc2ccc(Nc3ccnc4cc(-c5ccc(CNCCN6CCOCC6)o5)ccc34)cc2)nc1
The XC50 of the first is 2.1-fold lower: 675 nM for the first, 1440 nM for the second.

Going from `COc1ccc(C(=O)CCC(=O)N(Cc2ccc(-c3ccc(CNCc4cccnc4)cn3)cc2)C2CCN(Cc3ccccc3)CC2)cc1F` to `CCCNCc1ccc(-c2ccc(CN(Cc3cnc(C)cn3)C(=O)c3nn(-c4ccccc4)nc3C)cc2)nc1`, the XC50 falls from 978 nM to 419 nM (2.3-fold).

`CCCC(C)Nc1nc(C)cc(N[C@@H](Cc2ccccc2)C(=O)NCc2ccc(C)cc2)n1` (stereo not given in full) and `CC[C@H](C)CNC(=O)c1ccnc(-c2ccc(CNCCCc3ccccc3)cc2)c1` are within 1.5-fold of each other in XC50: 1120 nM for the first, 1230 nM for the second.

`CN1CCN(CCCNCc2ccccc2-c2cccc(CNCc3ccc4c(c3)OCO4)c2)CC1` and `O=C(NCCCCN1CCC(O)(c2ccc3c(c2)OCO3)CC1)c1ccc(NC(=O)c2ccc(Cl)cc2)cc1` are within 1.5-fold of each other in XC50: 793 nM for the first, 1180 nM for the second.

Compared with `O=C(Nc1ccc2c(c1)CCN2C1CCN(Cc2csc3ccccc23)C1)c1ccco1` (stereo not given), `Cc1cc(C(=O)Nc2ccc3c(c2)CCN3C2CCN(Cc3cccc4cc[nH]c34)C2)no1` (stereo not given) is 1.7-fold lower in XC50: 322 nM for the first, 189 nM for the second.

`c1cc(CNCC2CCCO2)cc(-c2cccc(-c3nc4ccccc4[nH]3)c2)c1` (stereo not given) and `OCC1CCCCN1Cc1cccc(-c2cccc(-c3nc4ccccc4[nH]3)c2)c1` (stereo not given) are within 1.5-fold of each other in XC50: 859 nM for the first, 779 nM for the second.

`CCCNC(=O)c1cncc(-c2ccc(CNCCCc3ccccc3)cc2)c1` and `NC(=O)c1cccc(CNCc2ccc(-c3cccc(-c4nc5ccccc5[nH]4)c3)cc2)c1` are within 1.5-fold of each other in XC50: 688 nM for the first, 592 nM for the second.

First: COc1cc(C(=O)NC2CCN(Cc3ccccc3)CC2)ccc1-c1cc2cc(Cl)c(Cl)cc2[nH]1
Second: CN(c1cc(NC(=O)c2ccccc2)ccn1)C1CCN(Cc2cccc(F)c2)CC1
The XC50 of the first is 3.3-fold lower: 227 nM for the first, 738 nM for the second.

Going from `COc1ccc(-c2cc(-c3nc4cc(CN)ccc4[nH]3)c(=O)n(C)c2)cc1OC` to `COc1cc(-c2cnc(N)c(-c3nc4ccccc4[nH]3)c2)cc(OC)c1OC`, the XC50 falls from 1400 nM to 191 nM (7.3-fold).

Compared with `COc1ccc2nccc([C@@H](O)CN3CCC(NCc4cc5ccccc5s4)CC3)c2c1`, `COc1ccc2nccc([C@@H](O)CN3CCC(NCc4ccc(OC)c(NC(C)=O)c4)CC3)c2c1` is 2.4-fold higher in XC50: 347 nM for the first, 835 nM for the second.

Going from `CCCC(=O)Nc1ccc(OCCCN(Cc2cccc(C(F)(F)F)c2)c2ccc(C#N)c(C(F)(F)F)c2)cc1` to `CCCCN1CCN(c2cc(NS(=O)(=O)c3ccc(C(=O)Nc4ccc(C(F)(F)F)cc4)cc3)ccc2OC)CC1`, the XC50 falls from 1090 nM to 664 nM (1.6-fold).

`c1ccc(Cn2nnnc2-c2cccc(Nc3ccnc4cc(-c5nccs5)ccc34)c2)cc1` and `c1ccc(-c2ccc3c(Nc4ccc5[nH]ccc5c4)ccnc3c2)nc1` are within 1.5-fold of each other in XC50: 826 nM for the first, 943 nM for the second.

Compared with `COc1ccccc1C1CCN(C2CCC(NC(=O)/C=C/c3cccc(Cl)c3F)CC2)CC1` (stereo not given), `CCCc1nc2c(N3CC(NC(=O)/C=C/c4ccccc4)C3)cccc2n1C1CC1` is 2.3-fold lower in XC50: 1290 nM for the first, 554 nM for the second.

`COc1ccc2nc(C)cc(Nc3ccc(Cl)cc3)c2c1` and `COc1ccc(Nc2ccnc3cc(Cl)ccc23)cc1OC` are within 1.5-fold of each other in XC50: 946 nM for the first, 1120 nM for the second.

First: CCOc1cc(CC)ccc1C1CCN(CCN2CCC(NC(=O)c3ccc(-c4ccc(C(C)=O)cc4)cc3)CC2)CC1
Second: Cc1ccc(C2CCN(CCCCNC(=O)c3ccc(-c4ccc(C(F)(F)F)cc4)cc3)CC2)c(O)c1
The XC50 of the first is 1.8-fold higher: 226 nM for the first, 128 nM for the second.

Going from `COc1cc(C(=O)N2CCOC(CCN3CCC(c4ccc(Cl)cc4)CC3)(c3ccc(Cl)c(Cl)c3)C2)cc(OC)c1OC` (stereo not given) to `COc1ccc(-c2ccc(CNC(=O)c3ccc(Cl)cc3)c(F)c2)cc1CN1CCCN(C)CC1`, the XC50 rises from 179 nM to 705 nM (3.9-fold).

Going from `CCCN1CCC2(CC1)NC(C(=O)NCCC(C)C)Cc1c2[nH]c2cc(Cl)ccc12` (stereo not given) to `CC(C)CCNC(=O)C1Cc2c([nH]c3cc(Br)ccc23)C2(CCN(Cc3ccccc3)CC2)N1` (stereo not given), the XC50 falls from 1380 nM to 792 nM (1.7-fold).

First: Cc1cc(C(=O)Nc2ccc(C)c(-c3nc(N(C(=O)c4ccc(F)c(C)c4)C4CCNCC4)nc4c3ccc(=O)n4-c3c(F)cccc3F)c2)ccc1F
Second: Cc1cc(Oc2cc(NC(=O)c3sc4ncn(Cc5ccccc5F)c(=O)c4c3C)cc([N+](=O)[O-])c2)ccc1Cl
The XC50 of the first is 3.6-fold lower: 319 nM for the first, 1150 nM for the second.

`O=C(/C=C/c1ccc(Cl)c(Cl)c1)NCCCCCCN1CCCN(C(=O)Nc2ccc(F)c(F)c2)CC1` and `O=C(/C=C/c1ccc(Cl)c(Cl)c1)NCCCCN1CCCN(C(=O)Nc2ccc(Cl)c(Cl)c2)CC1` are within 1.5-fold of each other in XC50: 1240 nM for the first, 859 nM for the second.

`Cc1ccc(NC(=O)C(C)Sc2nnc(-c3ccccc3Br)[nH]2)cc1` (stereo not given) and `COc1ccccc1-c1csc(C(=O)NCC2CCN(Cc3ccc(C(C)C)cc3)C2)c1` (stereo not given) are within 1.5-fold of each other in XC50: 1090 nM for the first, 1350 nM for the second.

Compared with `CCN1CCN(c2cc(C)c3cc(NC(=O)c4cccc([N+](=O)[O-])c4)ccc3n2)CC1`, `COc1ccc(CN2CCCN(Cc3cccc(NC(=O)c4cc5ccccc5s4)c3)CC2)cc1` is 1.6-fold higher in XC50: 524 nM for the first, 842 nM for the second.

Compared with `Cc1cccc2nc(-c3cccc(-c4cccc(C(=O)NCCc5cn(C)cn5)c4)c3)[nH]c12`, `O=C(NCc1ccc(F)cc1)Nc1cccc(-c2ccc(-c3nc4ccccc4[nH]3)cc2)c1` is 3.6-fold lower in XC50: 588 nM for the first, 165 nM for the second.

`CN(C(=O)c1nn(-c2ccccn2)c2nccc(-c3cccs3)c12)C1CCCCC1` and `CC(=O)Nc1ccc(CN2CCC(N(C)c3cc(NC(=O)c4cccs4)ccn3)CC2)cc1` are within 1.5-fold of each other in XC50: 1240 nM for the first, 892 nM for the second.

First: O=S(=O)(c1ccccc1C(F)(F)F)C1CC2CCC(C1)N2S(=O)(=O)c1ccc(Cl)c(C(F)(F)F)c1 (stereo not given)
Second: FC(F)(F)c1cc(C(F)(F)F)c2cc(CNCCCNc3nc4ccccc4[nH]3)[nH]c2c1
The XC50 of the first is 5-fold higher: 706 nM for the first, 141 nM for the second.

Compared with `COc1cc(NCCCNC(=O)c2cn(Cc3ccccc3)c3ccccc23)nc2ccccc12`, `COc1cc(NCC(O)CNc2cc(OC)c3ccccc3n2)nc2ccccc12` is 8-fold lower in XC50: 868 nM for the first, 109 nM for the second.

`CCCC(C(=O)OCCNC)(c1ccccc1)c1ccccc1` and `Nc1ncnc2cc(-c3cccc(NC(=O)Nc4ccccc4)c3)sc12` are within 1.5-fold of each other in XC50: 889 nM for the first, 705 nM for the second.

First: COc1ccc(CC2(c3ccc(F)cc3)N=C(N)N(CCCc3ccccc3)C2=O)cc1 (stereo not given)
Second: COc1ccc(CNCc2ccc(-c3cccc(-c4nc5cc(C(F)(F)F)ccc5[nH]4)c3)cc2)cc1
The XC50 of the first is 4.1-fold higher: 613 nM for the first, 151 nM for the second.

Compared with `CN1C(C)(C)CC(NC(=O)c2ccc(-c3nc4cc(Cl)ccc4[nH]3)cc2)CC1(C)C`, `Clc1ccc2nc(-c3cccnc3)[nH]c2c1` is 26-fold lower in XC50: 991 nM for the first, 38.4 nM for the second.

`COc1ccc(Nc2nccc(-c3ccc4ccnc(NCCCCN)c4c3)n2)cc1` and `Clc1ccc(-c2cc3c(NCc4ccncc4)nccc3s2)cc1` are within 1.5-fold of each other in XC50: 750 nM for the first, 852 nM for the second.

`COc1ccc(NS(=O)(=O)c2cc(NC(=O)Cn3ccccc3=O)ccc2N2CCCCC2)cc1` and `O=S(=O)(Nc1ccc2nccc(N3CCNCC3)c2c1)c1ccc2oc3ccccc3c2c1` are the same in XC50: 695 nM for the first, 695 nM for the second.

First: COc1ccc(Cn2c(Nc3cccc(C(F)(F)F)c3)nc3cc(C(=O)NCCN4CCCC4)cnc32)cc1Cl
Second: CC(=O)NCCNc1nccc(N2CCc3ncnc(Nc4ccc(OCc5cccc(F)c5)c(Cl)c4)c3C2)n1
The XC50 of the first is 7.1-fold higher: 915 nM for the first, 129 nM for the second.

`COc1c(F)cc(CC(C)NCC(O)c2cccc(Cl)c2)cc1F` (stereo not given) and `CN(C)Cc1cccc(-c2cc3c(-c4cnn(C)c4)c(Cl)cnc3[nH]2)c1` are within 1.5-fold of each other in XC50: 1160 nM for the first, 905 nM for the second.

Compared with `CN(C)CCCOc1cc(NC(=O)Nc2ccc(-c3ccncc3)c3ccccc23)ccc1I`, `O=C(Nc1ccsc1)Nc1cccc(-c2ccc(-c3nc4cc(C(F)(F)F)ccc4[nH]3)cc2)c1` is 2-fold lower in XC50: 699 nM for the first, 351 nM for the second.

Compared with `O=C(/C=C/c1ccc(Cl)c(Cl)c1)N1CCC(CN2CCC(c3c(Br)[nH]c4ccccc34)CC2)CC1`, `CC(=O)Nc1ccc2[nH]cc(C3CCN(CCC4CCN(C(=O)/C=C/c5ccc(Cl)c(Cl)c5)CC4)CC3)c2n1` is 1.8-fold higher in XC50: 289 nM for the first, 518 nM for the second.

Going from `CCn1c(Sc2ccc([N+](=O)[O-])c(C#N)c2)nnc1-c1cccc(Cl)c1` to `Cc1nn(-c2cccc(Cl)c2)c2c1C(C(=O)c1ccc3c(c1)OCO3)CC(=O)N2` (stereo not given), the XC50 falls from 873 nM to 371 nM (2.4-fold).

Compared with `CC(C)CCCC(C)(C)NC[C@@H](O)[C@H](Cc1ccccc1)NC(=O)c1cc(NC(C)C)cc(N2CCCCS2(=O)=O)c1`, `CSc1cccc(Nc2nc3ccc(S(=O)(=O)NCC(C)C)cc3n2C(C)C(C)C)c1` (stereo not given) is 4-fold higher in XC50: 206 nM for the first, 824 nM for the second.

First: CCOc1cc2ncnc(Nc3cc(Cl)c(Cl)c(Cl)c3)c2cc1OCC
Second: Cc1nc(N)nc(N)c1-c1cc(Cl)c(Cl)c(Cl)c1
The XC50 of the first is 4.2-fold lower: 197 nM for the first, 834 nM for the second.

`O=c1cc(NCCCNCc2cc(C(F)(F)F)ccc2F)[nH]c2ccccc12` and `COc1ccc2sc(CNCCCNc3cc(=O)c4ccccc4[nH]3)c(Cl)c2c1` are within 1.5-fold of each other in XC50: 829 nM for the first, 1070 nM for the second.

`COc1ccccc1-c1[nH]c2ccccc2c1CN1CCC(c2c(C)cccc2C)CC1` and `Fc1ccc(CN2CCN(c3ncnc4cc(-c5ccccc5)sc34)CC2)cc1` are within 1.5-fold of each other in XC50: 918 nM for the first, 1020 nM for the second.

Going from `COC(=O)c1noc(C)c1I` to `Cc1c(F)cc(C(=O)NC2CC2)cc1-c1ccc2c(cnn2S(=O)(=O)c2ccc(C#N)cc2)c1`, the XC50 falls from 802 nM to 100 nM (8-fold).

`CCOc1ccc(OCC)c(N2CCN(CCCCNC(=O)c3ccc(NC(=O)c4ccc(Cl)cc4)cc3)CC2)c1` and `CC1CN(c2cnn(Cc3ccc(NC(=O)Nc4ccc(F)cc4[N+](=O)[O-])cc3)c(=O)c2Cl)CC(C)N1` (stereo not given) are within 1.5-fold of each other in XC50: 587 nM for the first, 808 nM for the second.

First: O=S(=O)(Nc1cc2c(cc1O)CCN(C1CCC1)CC2)c1ccc(Oc2ccc(F)cc2)cc1
Second: C[C@@]12C[C@@H](Nc3nc(NCCc4ccc(O)cc4)nc(N4CCNCC4)n3)C[C@@H](C1)c1cccc(Cl)c1O2
The XC50 of the first is 1.7-fold lower: 775 nM for the first, 1320 nM for the second.

With `FC(F)(F)c1ccc(CNC2CCN(CC3CCCCC3)CC2)cc1` the XC50 was 933 nM.
